{"source": "paper PMC10099813", "about": "“Stafiba: A STAT5‐Selective Small‐Molecule Inhibitor” (Chembiochem, 2022)", "key": {"STAT4": {"biological_target": "T1, STAT4 (Homo sapiens, UniProt Q14765)", "T1 sequence (Q14765 1-748)": "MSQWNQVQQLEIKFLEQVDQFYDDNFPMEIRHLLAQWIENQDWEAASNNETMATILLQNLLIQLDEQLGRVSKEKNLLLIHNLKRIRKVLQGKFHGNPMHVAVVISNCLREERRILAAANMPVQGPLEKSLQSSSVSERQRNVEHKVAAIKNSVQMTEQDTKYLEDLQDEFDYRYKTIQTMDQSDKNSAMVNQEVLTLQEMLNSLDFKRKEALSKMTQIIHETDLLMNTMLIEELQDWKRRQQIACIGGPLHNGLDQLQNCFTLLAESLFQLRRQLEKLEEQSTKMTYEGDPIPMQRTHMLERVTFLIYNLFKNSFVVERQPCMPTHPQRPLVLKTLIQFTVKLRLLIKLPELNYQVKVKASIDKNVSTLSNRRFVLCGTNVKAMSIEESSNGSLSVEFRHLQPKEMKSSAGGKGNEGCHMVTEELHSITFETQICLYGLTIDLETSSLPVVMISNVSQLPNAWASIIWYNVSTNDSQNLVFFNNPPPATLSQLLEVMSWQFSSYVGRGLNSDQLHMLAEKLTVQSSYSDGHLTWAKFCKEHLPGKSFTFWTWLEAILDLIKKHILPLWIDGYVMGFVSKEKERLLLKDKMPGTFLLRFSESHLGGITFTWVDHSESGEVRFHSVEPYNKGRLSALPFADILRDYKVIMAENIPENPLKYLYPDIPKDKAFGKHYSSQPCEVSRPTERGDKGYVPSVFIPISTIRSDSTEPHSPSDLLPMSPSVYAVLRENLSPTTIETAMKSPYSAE", "test": "Competitive fluorescence polarization (FP) binding assay, STAT4", "conditions": "for IC50: 2 % DMSO for 5, 10 % DMSO for 10; for Ki: Ki calculated from IC50, 2 % DMSO for 5, 10 % DMSO for 10", "protocol": "(§1) Fluorescence polarization assays: Competitive binding assays based on fluorescence polarization were carried out essentially as previously described.[[4a]] Unless stated otherwise, final concentrations of the buffer components were: 10 mM Tris (pH 8.0), 50 mM NaCl, 1 mM EDTA, 1 mM DTT, 0.1 % (v/v) Nonidet P‐40 substitute, and 2 % DMSO. Proteins were used at concentrations which reflect the Kd values of the interactions between the fluoropeptide and the protein preparations. Protein concentrations used for activity analysis of compound 5 were 91 nM for STAT1, 107 nM for STAT3, 28 nM for STAT4, 122 nM for STAT5a, 56 nM for STAT5b and 101 nM for STAT6. Protein concentrations used for activity analysis of AC‐4‐130 were 103 nM for STAT5a and 62 nM for STAT5b. […] Final concentration of all fluorescent‐labelled peptides was 10 nM. The following peptides were used in assays: 5‐carboxyfluorescein‐GpYDKPHVL for STAT1; 5‐carboxyfluorescein‐GpYLPQTV‐NH2 for STAT3; 5‐carboxyfluorescein‐GpYLPQNID for STAT4; 5‐carboxyfluorescein‐GpYLVLDKW for STAT5a/5b, and 5‐carboxyfluorescein‐GpYVPWQDLI for STAT6. Protein and test compounds were incubated for 1 h prior to addition of the fluorescein‐labeled peptide. Fluorescence polarization was measured after another 60 min using an Infinite F500 plate reader (Tecan). IC50 values were converted to Ki‐values using the published equation.[13]"}, "STAT5a": {"biological_target": "T2, STAT5a (Homo sapiens, UniProt P42229)", "T2 sequence (P42229 1-794)": "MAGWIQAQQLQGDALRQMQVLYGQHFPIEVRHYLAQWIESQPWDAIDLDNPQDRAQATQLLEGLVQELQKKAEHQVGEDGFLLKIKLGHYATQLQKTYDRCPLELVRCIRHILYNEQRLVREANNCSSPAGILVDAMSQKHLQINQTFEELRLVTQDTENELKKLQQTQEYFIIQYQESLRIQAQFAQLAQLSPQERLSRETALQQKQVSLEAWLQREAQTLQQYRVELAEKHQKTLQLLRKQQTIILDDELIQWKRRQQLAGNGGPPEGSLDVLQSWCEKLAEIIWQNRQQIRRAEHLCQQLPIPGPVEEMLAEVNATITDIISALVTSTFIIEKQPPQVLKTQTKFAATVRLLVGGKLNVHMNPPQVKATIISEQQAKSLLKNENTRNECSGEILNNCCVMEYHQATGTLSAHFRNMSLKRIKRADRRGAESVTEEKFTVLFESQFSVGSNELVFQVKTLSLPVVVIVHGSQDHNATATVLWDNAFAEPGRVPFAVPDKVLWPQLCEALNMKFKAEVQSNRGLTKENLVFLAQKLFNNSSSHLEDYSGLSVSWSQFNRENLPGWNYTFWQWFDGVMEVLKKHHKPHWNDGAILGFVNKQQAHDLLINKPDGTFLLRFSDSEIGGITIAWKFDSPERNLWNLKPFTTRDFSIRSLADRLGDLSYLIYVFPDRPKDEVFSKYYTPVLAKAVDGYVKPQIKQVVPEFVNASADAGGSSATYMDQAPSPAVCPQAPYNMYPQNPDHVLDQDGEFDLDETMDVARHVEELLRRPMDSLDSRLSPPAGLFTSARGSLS", "test": "Competitive fluorescence polarization (FP) binding assay, STAT5a SH2 domain", "conditions": "for Ki / IC50: FP assay, 2 % DMSO (10 % DMSO for 10); for Ki: Ki calculated from IC50 (n=3) via published equation; for IC50: n=3 unless stated", "protocol": "as §1"}, "STAT1": {"biological_target": "T3, STAT1 (Homo sapiens, UniProt P42224)", "T3 sequence (P42224 1-750)": "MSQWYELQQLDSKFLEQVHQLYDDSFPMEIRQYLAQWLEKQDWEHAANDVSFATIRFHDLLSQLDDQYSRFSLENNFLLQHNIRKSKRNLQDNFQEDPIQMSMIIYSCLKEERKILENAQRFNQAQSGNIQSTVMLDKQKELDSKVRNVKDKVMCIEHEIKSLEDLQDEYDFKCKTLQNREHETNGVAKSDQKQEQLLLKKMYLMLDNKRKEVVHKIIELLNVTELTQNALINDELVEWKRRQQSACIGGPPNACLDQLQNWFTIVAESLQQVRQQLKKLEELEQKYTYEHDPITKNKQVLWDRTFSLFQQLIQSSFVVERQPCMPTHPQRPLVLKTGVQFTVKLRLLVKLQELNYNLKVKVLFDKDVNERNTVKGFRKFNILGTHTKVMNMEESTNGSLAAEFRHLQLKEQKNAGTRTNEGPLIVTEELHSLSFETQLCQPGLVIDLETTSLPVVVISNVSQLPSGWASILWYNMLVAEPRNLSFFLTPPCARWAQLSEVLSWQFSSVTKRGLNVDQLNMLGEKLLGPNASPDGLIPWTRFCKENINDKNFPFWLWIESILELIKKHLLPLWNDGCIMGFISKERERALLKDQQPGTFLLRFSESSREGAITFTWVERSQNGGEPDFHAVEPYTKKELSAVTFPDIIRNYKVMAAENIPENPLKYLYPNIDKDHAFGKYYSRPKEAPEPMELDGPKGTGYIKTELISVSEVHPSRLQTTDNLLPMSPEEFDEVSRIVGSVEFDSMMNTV", "test": "Competitive fluorescence polarization (FP) binding assay, STAT1", "conditions": "for IC50: 2 % DMSO for 5, 10 % DMSO for 10; for Ki: Ki calculated from IC50, 2 % DMSO for 5, 10 % DMSO for 10", "protocol": "as §1"}}}
{"smiles": "O=C(CNc1ccc(C(=O)Nc2ccc(Oc3ccccc3)cc2)cc1)NCc1cc(C(F)(F)P(=O)(O)O)c(F)c(C(F)(F)P(=O)(O)O)c1", "note": "[compound 10]", "values": [{"measurement": "IC50", "setting": "STAT4", "value": "11.2 ± 1.2", "unit": "µM"}, {"measurement": "Ki", "setting": "STAT4", "value": "5.3 ± 0.6", "unit": "µM"}, {"measurement": "Ki", "setting": "STAT5a", "value": "3 ± 0.4", "unit": "µM"}, {"measurement": "IC50", "setting": "STAT5a", "value": "6.2 ± 0.7", "unit": "µM"}, {"measurement": "activity compared with AC-4-130 in FP assay against the SH2 domain of STAT5a", "setting": "STAT5a; Figure 5C", "value": "substantially more active than AC‐4‐130"}, {"measurement": "IC50", "setting": "STAT1", "value": "53.8 ± 1.6", "unit": "µM"}, {"measurement": "Ki", "setting": "STAT1", "value": "26 ± 0.8", "unit": "µM"}]}
{"smiles": "O=C(CNc1ccc(C(=O)Nc2ccc(Oc3ccccc3)cc2)cc1)NCc1cc(OP(=O)(O)O)cc(OP(=O)(O)O)c1", "note": "[compound 5]", "values": [{"measurement": "IC50", "setting": "STAT4", "value": "11.3 ± 2.7", "unit": "µM"}, {"measurement": "Ki", "setting": "STAT4", "value": "5.3 ± 1.3", "unit": "µM"}, {"measurement": "Ki", "setting": "STAT5a", "value": "3.1 ± 0.1", "unit": "µM"}, {"measurement": "IC50", "setting": "STAT5a", "value": "6.4 ± 0.2", "unit": "µM"}, {"measurement": "IC50", "setting": "STAT1", "value": "70.4 ± 3.1", "unit": "µM"}, {"measurement": "Ki", "setting": "STAT1", "value": "34.6 ± 1.5", "unit": "µM"}]}
